# Test results as given in patent US9539256B2 (THE BOARD OF REGENTS OF THE UNIVERSITY OF TEXAS SYSTEM, priority 2012, dated 2017).
# Entries after “also recorded” stand apart in the source; their conditions may differ.
# What was measured:
# EPAC2 [1] = target: T1, EPAC2 (Homo sapiens, UniProt Q8WZA2); test: Phosphorylation of Akt in HEK293/EPAC2 cells; assay type: cell-based; details: 10 μM for 5 min before 007-AM
# T1 construct: HEK293 cells that ectopically express full-length EPAC2 proteins; expressed in transfected cells; host or cells: HEK293
# T1 sequence (Q8WZA2 whole entry, species assumed): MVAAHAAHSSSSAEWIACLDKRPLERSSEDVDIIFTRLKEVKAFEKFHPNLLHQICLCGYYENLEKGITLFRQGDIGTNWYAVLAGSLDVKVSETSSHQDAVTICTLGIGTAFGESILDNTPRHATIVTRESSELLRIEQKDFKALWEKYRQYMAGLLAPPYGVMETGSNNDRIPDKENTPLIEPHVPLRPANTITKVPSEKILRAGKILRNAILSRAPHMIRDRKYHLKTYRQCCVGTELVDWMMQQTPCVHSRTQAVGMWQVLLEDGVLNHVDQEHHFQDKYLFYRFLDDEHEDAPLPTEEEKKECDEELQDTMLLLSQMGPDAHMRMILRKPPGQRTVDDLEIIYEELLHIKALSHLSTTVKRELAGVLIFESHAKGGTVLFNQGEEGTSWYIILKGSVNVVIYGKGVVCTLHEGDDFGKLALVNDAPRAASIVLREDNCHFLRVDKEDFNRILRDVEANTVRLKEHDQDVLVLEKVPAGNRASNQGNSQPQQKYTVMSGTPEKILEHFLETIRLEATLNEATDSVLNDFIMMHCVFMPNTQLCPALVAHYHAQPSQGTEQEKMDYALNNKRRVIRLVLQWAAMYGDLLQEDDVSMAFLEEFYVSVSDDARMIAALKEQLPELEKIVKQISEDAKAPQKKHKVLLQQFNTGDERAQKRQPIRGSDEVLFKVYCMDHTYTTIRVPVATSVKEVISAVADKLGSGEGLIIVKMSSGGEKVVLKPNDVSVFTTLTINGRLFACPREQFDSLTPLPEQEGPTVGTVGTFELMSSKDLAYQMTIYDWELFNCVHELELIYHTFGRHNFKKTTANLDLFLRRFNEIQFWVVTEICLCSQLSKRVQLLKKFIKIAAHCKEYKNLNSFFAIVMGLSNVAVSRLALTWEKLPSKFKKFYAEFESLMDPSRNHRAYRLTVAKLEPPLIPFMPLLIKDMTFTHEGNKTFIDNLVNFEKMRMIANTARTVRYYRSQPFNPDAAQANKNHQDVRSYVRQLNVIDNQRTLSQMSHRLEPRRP
# Method: FIG. 10. Effect of ESI-09 on EPAC-mediated PKB phosphorylation in HEK293/EPAC1, HEK293/EPAC2, and human vascular smooth muscle (hVSMC) cells. Serum-starved HEK293/EPAC1, HEK293/EPAC2, and hVSMC cells with or without pretreatment of […] ESI-09 were stimulated with 10 μM 007-AM. Cell lysates were subjected to Western blot analysis as described under “Experimental Procedures” using anti-phospho-Ser473-specific (PKB-P473) and anti-phospho-Thr308-specific (PKB-P308) PKB antibodies.
# Cellular proteins from cell lysates treated with various reagents were separated by SDS-PAGE and transferred to polyvinylidene difluoride membrane. The levels of Akt activation were probed by immuno-blotting analyses using anti-phosphate T308 PKB antibodies (1:1000) and anti-phosphate S473 PKB antibodies (1:1000). At least three independent experiments were performed for each Western blot.
# [2] = tested on: CD4+CD25− (Tconv) proliferation in the presence Tregs; test: In vitro Treg suppression assay of Tconv proliferation; assay type: cell-based, mice; details: assay repeated in the presence of ESI-09; compared with Epac1 KO outcome
# From the text: The suppressive potency of WT and Epac1 KO Tregs was examined using an in vitro assay that examines CD4+CD25− (Tconv) proliferation in the presence Tregs. Epac1 KO Tconv and WT Tconv proliferated at the same rate when cultured alone. The addition of WT Tregs suppressed the proliferation of both cell populations to the same extent, while the addition of Epac1 KO Tregs suppressed the proliferation of Epac1 KO Tconv to a much lesser degree than it did WT Tconv's.
# EPAC2 [3] = target: T1, EPAC2; test: Rap1 activation assay in HEK293/EPAC2 cells; assay type: cell-based; details: HEK293/EPAC2 cells; pre-treatment with 10 μM compound
# Method: (§1) FIGS. 9A-9B. Effects of EPAC2-specific antagonists on 007-AM-mediated cellular activation of Rap1. […] GTP-bound Rap1 (Rap1GTP) obtained by a Ral-GDSRBD-GST pull-down assay and total cellular Rap1 were detected by immunoblotting with Rap1-specific antibody. […] At test was used to determine statistical significance (*P<0.05).
# (§2) Cellular activation of Rap1 was determined by pull-down of lysates derived from human vascular smooth muscle cell and HEK293 cells stably expressing EPAC1 or EPAC2 employing Ral-GDS-RBD-GST affinity beads as described earlier (Mei and Cheng (2005) Molecular Biosystems 1: 325-331).
# EPAC1 = target: T2, EPAC1 (Homo sapiens, UniProt O95398); test: Rap1 activation assay in HEK293/EPAC1 cells; assay type: cell-based
# T2 sequence (O95398 1-923): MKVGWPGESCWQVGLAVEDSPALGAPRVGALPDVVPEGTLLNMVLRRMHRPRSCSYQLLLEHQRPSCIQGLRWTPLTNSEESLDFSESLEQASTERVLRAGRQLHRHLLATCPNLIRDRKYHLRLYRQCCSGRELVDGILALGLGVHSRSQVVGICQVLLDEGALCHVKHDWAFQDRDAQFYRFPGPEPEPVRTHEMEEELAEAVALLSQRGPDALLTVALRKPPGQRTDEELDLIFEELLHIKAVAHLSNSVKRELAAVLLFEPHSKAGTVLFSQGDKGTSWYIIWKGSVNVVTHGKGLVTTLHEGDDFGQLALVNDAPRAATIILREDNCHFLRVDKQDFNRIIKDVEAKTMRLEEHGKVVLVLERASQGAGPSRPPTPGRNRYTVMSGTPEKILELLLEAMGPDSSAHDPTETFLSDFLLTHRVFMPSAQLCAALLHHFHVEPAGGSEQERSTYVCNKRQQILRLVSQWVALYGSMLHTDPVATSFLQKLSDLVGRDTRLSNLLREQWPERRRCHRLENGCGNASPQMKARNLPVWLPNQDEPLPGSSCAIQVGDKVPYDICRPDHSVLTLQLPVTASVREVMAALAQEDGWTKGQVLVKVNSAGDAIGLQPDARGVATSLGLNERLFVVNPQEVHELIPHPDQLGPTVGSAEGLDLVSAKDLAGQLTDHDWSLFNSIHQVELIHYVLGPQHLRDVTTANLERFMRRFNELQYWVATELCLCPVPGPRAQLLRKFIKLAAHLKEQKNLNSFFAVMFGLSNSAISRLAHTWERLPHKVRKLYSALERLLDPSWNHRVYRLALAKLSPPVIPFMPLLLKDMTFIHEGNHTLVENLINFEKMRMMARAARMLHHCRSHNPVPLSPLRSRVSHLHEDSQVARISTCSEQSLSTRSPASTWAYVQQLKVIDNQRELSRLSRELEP
# Method: as §1, §2
# R. australia = R. australia infection of HUVEC cells, immunofluorescence; assay type: cell-based; details: 24 hours post infection
# Method: FIG. 22. ESI-09 treatment suppresses cellular entry of R. australia. HUVEC cells treated with vehicle or ESI-09 were infected with R. australia. The levels of R. australia (Red) and EPAC1 (Green) were monitored with immunofluorescence staining 24 hours post infection.
# To investigate the mechanism of EPAC1 inhibition-mediated protection of R. australia infection, HUVEC cells treated with vehicle or ESI-09 were infected with R. australia.
smiles,measurement,setting,value
"CC(C)(C)c1cc(C(=O)C(C#N)=NNc2cccc(Cl)c2)no1 [ESI-09, 3-(5-Tert-Butyl-Isoxazol-3-Yl)-2-[(3-Chlorophenyl)-Hydrazono]-3-Oxo-Propionitrile]",EPAC2-mediated Akt phosphorylation (T308 and S473),EPAC2 [1],completely blocked
same,Tregs mediated suppression of Tconv,[2],the outcome was similar
same,007-AM induced Rap1 activation,EPAC2 [3],significant reduction
same,007-AM induced Rap1 activation,EPAC1,effective
same,number of intracellular R. australia (cellular entry),R. australia,dramatically reduced; also recorded: suppresses
